Legend:
[1] = test system: Collagen induced arthritis; assay: Collagen induced arthritis (CIA), mice; type: in vivo; conditions: 3 mg/kg p.o.
Procedure: (§1) Collagen induced arthritis is a commonly used and widely accepted arthritis model. Immunologically, the model is dominated by a Th1 response; it is antigen specific and depends on both the B- and T-cell response. This model is responsive to most therapies effective in rheumatoid arthritis in humans except NSAIDs.
In order to induce arthritis, the mice were immunised intradermally (i.d.) at the base of the tail with 100 μl of CII emulsion (2 mg/ml) in FCA (2 mg/ml of M. tuberculosis). The mice were re-immunised i.d. 21 days later with 100 μl of CII emulsion (1 mg/ml) in FIA. The test compound was administrated once daily from the initiation of treatment to the day before the end of the experiment.
(§2) Starting from 21 days after the induction of CIA, the mice were weighed twice a week and the inflammation of the four paws was graded from 0 to 4: • 0: Normal • 1: Swelling of 1-2 toe joints or swelling of metatarsus/metacarpus without swelling of toe joints. • 2: Swelling of >2 toe joints or swelling of toe joints and metatarsus/metacarpus • 3: Severe swelling of the paw including metatarsus/metacarpus • 4: Very severe swelling of the paw resulting in chapped skin. The animals are euthanised. The sum of the scores from the four paws is reported as the arthritis score for each mouse. The maximum score obtainable is therefore 16.
(§3) The area under curve (AUC) of the arthritis score was calculated for all mice and used as a disease index. The treatment effect (inhibitory effect) of the compounds is calculated as:
(§4) 1−(AUCtreatment group)/(AUCvehicle group)
The medians of the AUC from all groups were compared using the Kruskal-Wallis test. When P<0.05 in the Kruskal-Wallis test, the Mann Whitney test was used to compare the AUCs for individual mice in drug treated groups with the AUC for mice in the control group which were treated with vehicle (significance level P<0.05).

[2] = test system: Collagen induced arthritis; assay: Collagen induced arthritis (CIA), rats; type: in vivo; conditions: 5 mg/kg p.o.
Text: as §1, §2, §3, §4
Lewis inbred rats (Harlan), 6 females per group, approximately 11 weeks old were immunised intradermally (i.d.) at the base of the tail with 200 μl of CII emulsion (1 mg/ml) in incomplete Freunds adjuvant (FIA). The rats were re-immunised 10 days later with 50 μl of CII emulsion (1 mg/ml) in FIA. From day 12 the inflammation of each paw was graded and calculated as described for the mouse model. The test-compound was administrated orally from day 10 or from day 14. The last day of treatment was the day before the end of the experiment.

[3] = Table 7, first experiment, printed treated from day 10
[4] = Table 7, first experiment, treated from day 10
[5] = Table 8, second experiment, treated from day 10
[6] = Table 8, second experiment, treated from day 14

Question: With `C[C@]12C=CC(=O)C=C1CC[C@@H]1[C@@H]2[C@@H](O)C[C@@]2(C)[C@H]1CC[C@]2(O)C(=O)CO` [Prednisolone] as the molecule, how does the “AUC of arthritis score, Average” value ([1]; Table 5) read?
Answer: 27

Question: What about the “Percent of vehicle control (group 1)” value ([1]; Table 5, vehicle day 10) of the same molecule?
Answer: −84%

Question: And the “AUC of arthritis score, Average” value ([1]; Table 6)?
Answer: 27

Question: What about the “Percent of vehicle control (group 1)” value ([1]; Table 6, vehicle day 28) of the same molecule?
Answer: −78%

Question: What about the “AUC of arthritis score, Average” value [2, 3] of the same molecule?
Answer: 9

Question: And the “Percent of vehicle control (group 1)” value [2, 3]?
Answer: −74%

Question: And the “AUC of arthritis score, Average” value [2, 4]?
Answer: 0.2

Question: What about the “Percent of vehicle control (group 1)” value [2, 4] of the same molecule?
Answer: −100%

Question: What about the “AUC of arthritis score, Average” value [2, 5] of the same molecule?
Answer: 0

Question: And the “Percent of vehicle control (group 1)” value [2, 5]?
Answer: −−100%

Question: What about the “AUC of arthritis score, Average” value [2, 6] of the same molecule?
Answer: 8

Question: And the “Percent of vehicle control (group 1)” value [2, 6]?
Answer: −78%
